Read-outs that look alike come from different tables or passages of the source.
Experiments:
DC-3F/ADX = assay: Tumor cell growth inhibition in vitro; type: cell-based, hamster; details: for IC50: DC-3F/ADX; for cross-resistance (fold of resistance vs parent cell line): DC-3F/ADX vs DC-3F
Protocol: (§1) The fresh medium containing each drug was replenished every 7-14 days. […] In each case ,the drug-exposed cells were resuspended in fresh media for a minimum of 4 days before the experiments for the cell-growth inhibition was carried out.
(§2) The cells were cultured at an initial density of 2-5×10^4 cells per ml. They were maintained in a 5% CO2-humidified atmosphere at 37° C. in RPMI mediun 1640 (GIBCO/BRL) containing penicillin (100 units/ml), streptomycin (100 μg/ml) (GIBCO/BRL), and 5% heat-inactivated fetal bovine serum. For solid tumor cells growing in a monolayer (such as MCF-7/Adr), cytotoxicitiy of the drug was determined in 96-well microtiter plates by using the sulforhodamine B method as described by Skehan et al (23) for measuring the cellular protein content. For cells that were grown in suspension (such as CCRF-CEM and its sublines), cytotoxicitiy was measured by using the 2,-3-bis(2-methoxy-4-nitro-5-sulfophenyl)-5carboxanilide)-2H terazodium hydroxide (XTT)-microculture tetrazonium method (24) in duplicate in 96-well microtiter plates. For both methods, the absorbance of each well was measured with a microplate reader (EL-340, Bio-Tek, Burlington, Vt.). Each run entailed six or seven concentrations of the tested drugs. Dose-effect relationship data were analyzed with the median-effect plot (25) by using a previously described computer program (26).

[1] = tested on: DC-3F hamster lung fibroblasts; assay: Tumor cell growth inhibition in vitro; type: cell-based
Protocol: as §1, §2

CCRF-CEM/VBL = assay: Relative potency in vitro, very highly resistant MDR cells; type: cell-based, human; details: for IC50: Homo sapiens, CCRF-CEM, read-out: CCRF-CEM/VBL IC50 in μM; for Fold of Resistance (B)/(A): [IC50 CCRF-CEM/VBL]/[IC50 CCRF-CEM]
Protocol: as §2

[2] = tested on: SK-OV-3 ovary adenocarcinoma xenograft; assay: Human tumor xenograft in nude mice; type: in vivo
Protocol: Depending on the tumor type, treatment started on day 10 to day 21 when subcutaneous tumor size reached 35-200 mm^3, except otherwise indicated. Tumor size and body-weight were recorded every other day (Q2D) and, for humane reasons, the animals were sacrificed when tumor size reached ≧10% of body-weight. Each group, including untreated control, consisted of 3-5 animals unless otherwise indicated.
Athymic nude mice bearing the nu/nu gene were used for all human tumor xenografts. Outbred, Swiss-background mice were obtained from Charles River Laboratories. Male mice 8 weeks or older weighing 22 g and up were used for most experiments. The drug was administered via the tail vein for 6 hr.-i.v. infusion. Each individual mouse was confined in a perforated Falcon polypropylene tube restrainer for drug administration. Tumor volume was assessed by measuring length×width×height (or width) using a caliper. The programmable Harvard PHD2000 syringe pump (Harvard Apparatus) with multi-track was used for i.v. infusion. […] All animal studies were conducted in accordance with the guidelines of the National Institutes of Health “Guide for the Care and Use of Animals” and the protocol approved by the Memorial Sloan-Kettering Cancer Center's Institutional Animal Care and Use Committee. In keeping with the policy of this committee for the humane treatment of tumor-bearing animals, mice were euthanized when tumors reached ≧10% of their total body weight.
Human tumor cells (5×10^6) or tumor tissue (30-50 mg) were implanted s.c. flank in nu/nu mice (Charles River Laboratories, Wilmington, Mass.). When tumor grew to a specified size, treatment was started by every-other day×5 with 6 hr i.v.-infusion, unless otherwise indicated. Tumor volume was measured with calipers in three dimensions (length×width×height or width). Body-weight changes and lethality were monitored every other day.

B16 Melanoma = type: in vivo, murine; details: mouse, in vivo
[3] = Stability in plasma in vitro (HPLC); type: in vitro ADME, mouse
Protocol: (§3) (FIG. 44). […] (FIG. 44).
(§4) Human blood plasma or nude mice plasma (300 μl) containing dEpoB (0.05-20 μg/ml) was added 30 μl of methanol and mixed for 2 min and then added 300 μl of methanol. The centrifuge supernatant was used for high performance liquid chromatography (HPLC). Nova-pak C18 column (15 cm) was used, with 50% acetonitrile/water with 0.8% triethylamine and 0.2% phosphoric acid as mobile phase. UV absorbance at 250 nm was measured.
(§5) Stability of dEpoF in animal plasmas. A HPLC method is set up using a NovaPak C 18, 3.9×300 mm column with a mobile phase of 50% acetonitrile in 50 mM potassium dihydrogen phosphate with 0.01% triethylamine at a flow rate of 0.8 ml/min. dEpoF is monitored at a wavelength of 260 nm and has a retention time of about 10 min. The plasma stability is performed with mouse plasma and dog plasma purchased from Pel-Freeze and human plasma from the blood center in MSKCC. A small amount of dEpoF was dissolved in 50% methanol/water at a concentration of 500 μg/mL. An aliquot of 20 μL is then spiked to 2 mL of plasma to a final plasma concentration of 5 μg/mL. The plasma samples were kept at 37 degree. […] Twenty μL of the supernatant was analyzed by HPLC without further modification. dEpoF disappears rapidly with half life about one hour in the commercial frozen mouse plasma alone, but stable in dog and human plasma.

[4] = Stability in plasma in vitro (HPLC); type: in vitro ADME, human
Protocol: as §3, §4, §5

tubulin = assay: Tubulin-binding / tubulin polymerization assay; type: biochemical
[5] = SK-OV-3, dEpoB 30 mg/kg, Taxol 15 mg/kg, Q2Dx6, 6-hr i.v. infusion

## CC(=O)O[C@H]1C(=O)[C@@]2(C)[C@H]([C@H](OC(=O)c3ccccc3)[C@]3(O)C[C@H](OC(=O)[C@H](O)[C@@H](NC(=O)c4ccccc4)c4ccccc4)C(C)=C1C3(C)C)[C@]1(OC(C)=O)CO[C@@H]1C[C@@H]2O [Taxol, paclitaxel, reference compound]
DC-3F/ADX
  IC50: 583 nM
DC-3F/ADX; listed as Paclitaxel
  IC50: 20200 nM
UL-3-B/Taxol; UL-3-B/Taxol
  IC50: 13.4 nM

## C/C(=C\c1csc(C)n1)C1C[C@@H]2O[C@]2(C)CCC[C@H](C)[C@H](O)[C@@H](C)C(=O)C(C)(C)C(O)CC(=O)N1 (stereo partly drawn) [aza-EpoB, aza-epothilone B]
[1]; Mesocricetus auratus, DC3F, read-out: IC50
  IC50: 8.7 nM
DC-3F/ADX
  cross-resistance (fold of resistance vs parent cell line): 33.1 x
DC-3F/ADX; listed as 15-aza-EpoB
  cross-resistance (fold of resistance vs parent cell line): 274 x
DC-3F/ADX; listed as 15-aza-EpoB, read-out: IC50
  IC50: 2380 nM
DC-3F/ADX; read-out: IC50
  IC50: 288 nM
UL-3-B/Taxol
  cross-resistance (fold of resistance vs parent cell line): 0.015[12.5] x

## C/C1=C/C[C@@H](/C(C)=C/c2csc(C)n2)OC(=O)C[C@H](O)C(C)(C)C(=O)[C@H](C)[C@@H](O)[C@@H](C)CCC1 [dEpoB, 12,13-desoxyepothilone B]
[1]
  IC50: 2.5 nM
[1]; Mesocricetus auratus, DC3F
  IC50: 1.9 nM
CCRF-CEM/VBL
  IC50: 0.637 µM
  Fold of Resistance (B)/(A): 8.6 x
[2]; SK-OV-3, i.v. infusion
  Therapeutic Effect Rank Order: Taxol>>dEpoB
[2]; SK-OV-3, i.v. or i.p., ref 19 (Table 6)
  Therapeutic Effect Rank Order: dEpoB≈Taxol
[2]; SK-OV-3, dEpoB 30 mg/kg, Taxol 15 mg/kg, Q2Dx6
  Therapeutic Effects dEpoB vs Taxol: <<
[2]; [5]
  Lowest Average Tumor Size (T/C): 0.17
  Tumor Disappearance: 0/3
B16 Melanoma
  Therapeutic Effect Rank Order: dEpoB>Taxol>>EpoB
[3]; nude, mouse, plasma, nude mice plasma, HPLC, read-out: t1/2 in nude mice plasma in vitro
  half-life: ~20 min
[4]; human plasma, HPLC
  period of stability in human plasma in vitro: over 3 hrs

## C/C1=C/C[C@@H](/C(C)=C/c2csc(CO)n2)OC(=O)C[C@H](O)C(C)(C)C(=O)[C@H](C)[C@@H](O)[C@@H](C)CCC1 [dEpoF, 12,13-Desoxyepothilone F]
CCRF-CEM/VBL
  IC50: 0.287 µM
  Fold of Resistance (B)/(A): 33.6 x
CCRF-CEM/VBL; MDR CCRF-CEM/VBL cells
  potency relative to dEpoB (times less potent): 4.5 ×
tubulin
  tubulin-binding activity retained relative to dEpoB: 90%
[3]; commercial frozen mouse plasma, 5 μg/mL, 37 degree
  half life in mouse plasma: about one
[4]; 5 μg/mL, 37 degree
  stability in human plasma: stable
